The values below come from patent US8685982B2, “Thioamide, amidoxime and amidrazone derivatives as HIV attachment inhibitors” (priority 2011, dated 2014).

Read-outs that look alike come from different tables or passages of the source. Where only a bound is given, the exact number is not on record here.

This assay deals with HIV-1 LAI envelope single-round infectious reporter virus. Kind of assay: Single-round infectious HIV-1 LAI luciferase reporter virus infection of MT2 cells. It is filed as cell-based. The conditions noted are these: Human immunodeficiency virus 1, MT2, 72 h. The text has this:
Virus Production • Human embryonic Kidney cell line, 293T (HEK 293T), was propagated in Dulbecco's Modified Eagle Medium (Invitrogen, Carlsbad, Calif.) containing 10% fetal bovine serum (FBS, Sigma, St. Louis, Mo.). The human T-cell leukemia cell MT2 (AIDS Research and Reference Reagent Program, Cat. 237) was propagated in RPMI 1640 (Invitrogen, Carlsbad, Calif.) containing 10% fetal bovine serum (FBS, Hyclone, Logan, Utah)
Virus Infection • Single-round infectious reporter virus was produced by co-transfecting HEK 293T cells with plasmide expressing the HIV-1 LAI envelope along with a plasmid containing an HIV-1 LAI proviral cDNA with the envelope gene replaced by a firefly luciferase reporter gene (Chen et al., Ref 41). Transfections were performed using lipofectAMINE PLUS reagent as described by the manufacturer (Invitrogen, Carlsbad, Calif.). Experimental Procedure • 1. MT2 cells were plated in black, 384 well plates at a cell density of 5×10^3 cells per well in 25 μl RPMI 1640 containing 10% FBS. • 2. Compound (diluted in dimethylsulfoxide and growth medium) was added to cells at 12.5 μl/well, so that the final assay concentration would be ≦50 nM. • 3. 12.5 μl of single-round infectious reporter virus in Dulbecco's Modified Eagle Medium was added to the plated cells and compound at an approximate multiplicity of infection (MOI) of 0.01, resulting in a final volume of 50 μl per well. • 4. Virus-infected cells were incubated at 37 degrees Celsius in a CO2 incubator and harvested 72 h after infection. • 5. Viral infection was monitored by measuring luciferase expression in the infected cells using a luciferase reporter gene assay kit (Steady-Glo, Promega, Madison, Wis.) as described by the manufacturer. Luciferase activity was then quantified by measuring luminescence using an EnVision Multilabel Plate Readers (PerkinElmer, Waltham, Mass.). • 6. The percent inhibition for each compound was calculated by quantifying the level of luciferase expression in cells infected in the presence of each compound as a percentage of that observed for cells infected in the absence of compound and subtracting such a determined value from 100. • 7. An EC50 provides a method for comparing the antiviral potency of the compounds of this disclosure. The effective concentration for fifty percent inhibition (EC50) was calculated with the Microsoft Excel Xlfit curve fitting software. For each compound, curves were generated from percent inhibition calculated at 10 different concentrations by using a four parameter logistic model (model 205). Table 1 is the key for the data in Table 2.
For orientation: In a reporter assay the amount or activity of a reporter protein is the signal.

The mark [1] stands for this setting: read-out: EC50 Group from Table 1.

A word on the EC50: it is the concentration giving half of the maximal effect. In the case of `O=C(C(=O)N1CCN(C(=NO)c2ccccc2)CC1)c1c[nH]c2c(-n3ccnn3)ncc(F)c12` [Compound 2005, 1-(4-fluoro-7-(1H-1,2,3-triazol-1-yl)-1H-pyrrolo[2,3-c]pyridin-3-yl)-2-(4-((hydroxyimino)(phenyl)methyl)piperazin-1-yl)ethane-1,2-dione], the EC50 was 0.121 nM. Also, the EC50 under setting [1] was below 500 nM.
`CN(C)c1ccc(C(=S)N2CCN(C(=O)C(=O)c3c[nH]c4cccc(F)c34)CC2)cc1` [Compound 1001]: under setting [1], the EC50 is above 500 nM.
For the molecule `CON=C(c1ccccc1)N1CCN(C(=O)C(=O)c2c[nH]c3c(-n4cnc(C)n4)ncc(OC)c23)CC1` [Compound 2004, 1-(4-methoxy-7-(3-methyl-1H-1,2,4-triazol-1-yl)-1H-pyrrolo[2,3-c]pyridin-3-yl)-2-(4-((methoxyimino)(phenyl)methyl)piperazin-1-yl)ethane-1,2-dione], the EC50 was found to be 0.019 nM. For the same molecule, the EC50 under setting [1] is below 500 nM.
As for `CON=C(c1ccccc1)N1CCN(C(=O)C(=O)c2c[nH]c3c(-n4ccnn4)ncc(F)c23)CC1` [Compound 2002, 1-(4-fluoro-7-(1H-1,2,3-triazol-1-yl)-1H-pyrrolo[2,3-c]pyridin-3-yl)-2-(4-((methoxyimino)(phenyl)methyl)piperazin-1-yl)ethane-1,2-dione], the EC50 under setting [1] was below 500 nM.
Take `CN(C)N=C(c1ccccc1)N1CCN(C(=O)C(=O)c2c[nH]c3c(-n4ccnn4)ncc(F)c23)CC1` [Compound 1003]: under setting [1], the EC50 is below 500 nM.
In the case of `O=C(C(=O)N1CCN(C(=S)c2ccccc2)CC1)c1c[nH]c2c(-n3ccnn3)ncc(F)c12` [Compound 2001, 1-(4-fluoro-7-(1H-1,2,3-triazol-1-yl)-1H-pyrrolo[2,3-c]pyridin-3-yl)-2-(4-(phenylcarbonothioyl)piperazin-1-yl)ethane-1,2-dione], the EC50 was 0.027 nM. Moreover, under setting [1], the EC50 was below 500 nM.
